Reference: publication PMC9118553, “In Vivo Bioconcentration of 10 Anionic Surfactants in Rainbow Trout Explained by In Vitro Data on Partitioning and S9 Clearance” (Environmental Science & Technology, 2022)
Several values for one entry are separate records, joined by “and”; a condition that tells them apart may be missing. Equal entries are not always repeated. Marks after values point to notes of the source that are not given here.

What was measured:
rainbow trout = assay: In vivo bioconcentration experiment with a mixture of anionic surfactants, flow-through aquaria, 10 °C, pH 7.8; settings: for Concentration in fish: individual fish;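 as to Uptake rate constant kU: L kg-1 h-1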
Summary of the method: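 Juvenile rainbow trout exposed to a 10-surfactant mixture for 4 days, then 7-day depuration, in flow-through aquaria at 10 °C, pH 7.8. Whole-fish homogenates and water analysed by LC-MS/MS against BEHP internal standard. kU, kT and BCF (=kU/kT) estimated by joint Bayesian model including water-concentration uncertainty.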

[1] = cited from earlier work
[2] = determined using nominal concentrations in water
[3] = from measured concentrations in water, Bayesian estimate, 95% credible interval in brackets
[4] = measured concentrations in water, simpler estimation method (Text S3), 95% confidence intervals in brackets

- BCF (rainbow trout; [2]): 32 L kg-1 ww
- Elimination rate constant kT (rainbow trout; [2]): 0.028 h⁻¹
- Uptake rate constant kU (rainbow trout; [2]): 0.90 L/kg/h
- Log BCF (rainbow trout; determined with measured concentrations in water): 1.47 L kg-1 ww
- Elimination rate constant kT (rainbow trout; [3]): 0.024 (0.022–0.026) h^–1
- Uptake rate constant kU (rainbow trout; [3]): 0.70 (0.61–0.80) L kg^–1 ww h^–1
- diffusion coefficient (D) in the epithelial membrane of the gills (rainbow trout; in vivo): 3.1 × 10^–8 m h^–1
- BCF (kinetic) (rainbow trout; kinetic BCF from measured concentrations in water, 95% credible interval in brackets): 30 (26–33) L kg^–1 ww
- BCF (rainbow trout; [4]): 28 (8) L kg-1 ww
- Elimination rate constant kT (rainbow trout; [4]): 0.026 (5) h-1
- Uptake rate constant kU (rainbow trout; [4]): 0.73 (6) L kg-1 ww h-1
SMILES: CCCCCCCCCCCCCCS(=O)(=O)O [C14SO3, tetradecylsulfonate]
- Concentration in fish (rainbow trout; elimination phase, 97 h): 113 ng g-1 ww and 118 ng g-1 ww and 164 ng g-1 ww
- Concentration in fish (rainbow trout; elimination phase, 98 h): 130 ng g-1 ww and 119 ng g-1 ww and 109 ng g-1 ww
- Concentration in fish (rainbow trout; elimination phase, 100 h): 185 ng g-1 ww and 93 ng g-1 ww and 114 ng g-1 ww
- Concentration in fish (rainbow trout; elimination phase, 103 h): 94 ng g-1 ww and 194 ng g-1 ww and 108 ng g-1 ww
- Concentration in fish (rainbow trout; elimination phase, 120 h): 62 ng g-1 ww and 81 ng g-1 ww and 50 ng g-1 ww
- Concentration in fish (rainbow trout; elimination phase, 128 h): 60 ng g-1 ww and 45 ng g-1 ww and 68 ng g-1 ww
- Concentration in fish (rainbow trout; elimination phase, 144 h): 42 ng g-1 ww and 31 ng g-1 ww and 70 ng g-1 ww
- Concentration in fish (rainbow trout; elimination phase, 168 h): 30 ng g-1 ww and 28 ng g-1 ww and 16.5 ng g-1 ww
- Concentration in fish (rainbow trout; elimination phase, 192 h): 11.9 ng g-1 ww and 8.6 ng g-1 ww and 12.7 ng g-1 ww
- Concentration in fish (rainbow trout; elimination phase, 264 h): 6.6 ng g-1 ww and 4.8 ng g-1 ww and 1.75 ng g-1 ww
- Concentration in fish (rainbow trout; exposure phase, 1 h): 38 ng g-1 ww and 7.5 ng g-1 ww and 72 ng g-1 ww
- Concentration in fish (rainbow trout; exposure phase, 2 h): 11.3 ng g-1 ww and 11.7 ng g-1 ww and 6.8 ng g-1 ww
- Concentration in fish (rainbow trout; exposure phase, 3 h): 16.0 ng g-1 ww and 19.9 ng g-1 ww and 15.9 ng g-1 ww
- Concentration in fish (rainbow trout; exposure phase, 4 h): 27 ng g-1 ww and 153 ng g-1 ww and 415 ng g-1 ww
- Concentration in fish (rainbow trout; exposure phase, 6 h): 41 ng g-1 ww and 39 ng g-1 ww and 32 ng g-1 ww
- Concentration in fish (rainbow trout; exposure phase, 24 h): 101 ng g-1 ww and 111 ng g-1 ww and 80 ng g-1 ww
- Concentration in fish (rainbow trout; exposure phase, 48 h): 152 ng g-1 ww and 155 ng g-1 ww and 117 ng g-1 ww
- Concentration in fish (rainbow trout; exposure phase, 72 h): 180 ng g-1 ww and 141 ng g-1 ww and 103 ng g-1 ww
- Concentration in fish (rainbow trout; exposure phase, 96 h): 168 ng g-1 ww and 150 ng g-1 ww and 178 ng g-1 ww
- log DMW, membrane-water distribution ratio ([1]; marked * = measured, used for IVIVE, same values as Table 3): 4.95
- log DMLW ([1]; measurement from Droge): 4.95 ^e L kg^–1
